Calls of active or inactive are those of the source. The rule behind the calls is not given here.
Experiments:
HCT-116 [1] = assay: Antiproliferative activity against human HCT-116 cells assessed as inhibition of cell growth incubated for 72 hrs by SRB assay; type: functional, cell-based; details: HCT-116, 72 h
LS174T = assay: Antiproliferative activity against human LS174T cells assessed as inhibition of cell growth incubated for 72 hrs by SRB assay; type: functional, cell-based
RKO [2] = assay: Induction of cell cycle arrest in human RKO cells assessed as accumulation at G0/G1 phase at 1.25 uM after 24 hrs by RNase A/propidium iodide staining based flow cytometric analysis (reference value: 51.49 %); type: functional
RKO [3] = assay: Induction of cell cycle arrest in human RKO cells assessed as accumulation at S phase at 1.25 uM after 24 hrs by RNase A/propidium iodide staining based flow cytometric analysis (reference value: 24.20 %); type: functional
RKO [4] = assay: Induction of cell cycle arrest in human RKO cells assessed as accumulation at G2/M phase at 2.5 uM after 24 hrs by RNase A/propidium iodide staining based flow cytometric analysis (reference value: 24.38 %); type: functional
RKO [5] = assay: Induction of cell cycle arrest in human RKO cells assessed as accumulation at G0/G1 phase at 5 uM after 24 hrs by RNase A/propidium iodide staining based flow cytometric analysis (reference value: 51.49 %); type: functional
RKO [6] = assay: Induction of cell cycle arrest in human RKO cells assessed as accumulation at G2/M phase at 5 uM after 24 hrs by RNase A/propidium iodide staining based flow cytometric analysis (reference value: 24.38 %); type: functional
RKO [7] = assay: Induction of cell cycle arrest in human RKO cells assessed as upregulation of p-Cdc2 at Y15 residue expression measured after 24 hrs by Western blot analysis; type: functional, cell-based; details: dose 1.25-5 µM
RKO [8] = assay: Induction of cell cycle arrest in human RKO cells assessed as accumulation at G0/G1 phase at 2.5 uM after 12 hrs by RNase A/propidium iodide staining based flow cytometric analysis (reference value: 60.58 %); type: functional
RKO [9] = assay: Induction of cell cycle arrest in human RKO cells assessed as accumulation at S phase at 2.5 uM after 12 hrs by RNase A/propidium iodide staining based flow cytometric analysis (reference value: 13.33 %); type: functional
RKO [10] = assay: Induction of cell cycle arrest in human RKO cells assessed as accumulation at G0/G1 phase at 2.5 uM after 24 hrs by RNase A/propidium iodide staining based flow cytometric analysis (reference value: 60.58 %); type: functional
RKO [11] = assay: Induction of cell cycle arrest in human RKO cells assessed as accumulation at S phase at 2.5 uM after 24 hrs by RNase A/propidium iodide staining based flow cytometric analysis (reference value: 13.33 %); type: functional
RKO [12] = assay: Induction of cell cycle arrest in human RKO cells assessed as accumulation at G2/M phase at 2.5 uM after 24 hrs by RNase A/propidium iodide staining based flow cytometric analysis (reference value: 24.63 %); type: functional
RKO [13] = assay: Induction of cell cycle arrest in human RKO cells assessed as accumulation at sub-G1 phase at 2.5 uM after 36 hrs by RNase A/propidium iodide staining based flow cytometric analysis (reference value: 0.89 %); type: functional
RKO [14] = assay: Induction of cell cycle arrest in human RKO cells assessed as accumulation at S phase at 2.5 uM after 36 hrs by RNase A/propidium iodide staining based flow cytometric analysis (reference value: 13.33 %); type: functional
RKO [15] = assay: Induction of cell cycle arrest in human RKO cells assessed as accumulation at G2/M phase at 2.5 uM after 36 hrs by RNase A/propidium iodide staining based flow cytometric analysis (reference value: 24.63 %); type: functional
RKO [16] = assay: Induction of cell cycle arrest in human RKO cells assessed as accumulation at sub-G1 phase at 2.5 uM after 48 hrs by RNase A/propidium iodide staining based flow cytometric analysis (reference value: 0.89 %); type: functional
RKO [17] = assay: Induction of cell cycle arrest in human RKO cells assessed as accumulation at G0/G1 phase at 2.5 uM after 48 hrs by RNase A/propidium iodide staining based flow cytometric analysis (reference value: 60.58 %); type: functional
RKO [18] = assay: Induction of cell cycle arrest in human RKO cells assessed as accumulation at S phase at 2.5 uM after 48 hrs by RNase A/propidium iodide staining based flow cytometric analysis (reference value: 13.33 %); type: functional
RKO [19] = assay: Induction of apoptosis in human RKO cells assessed as increase in cleaved caspase 9 expression at 2.5 uM measured upto 48 hrs by Western blotting analysis; type: functional, cell-based; details: time hrs <=48
RKO [20] = assay: Induction of apoptosis in human RKO cells assessed as increase in cleaved caspase 3 expression at 2.5 uM measured upto 48 hrs by Western blotting analysis; type: functional, cell-based; details: time hrs <=48
RKO [21] = assay: Induction of apoptosis in human RKO cells assessed as decrease in survivin expression at 2.5 uM by Western blotting analysis; type: functional, cell-based; details: time 12-48 hrs, TDE = time-dependent effect
RKO [22] = assay: Induction of apoptosis in human RKO cells assessed as total apoptotic cells at 1.25 uM after 48 hrs by Annexin V/PI staining based flow cytometric analysis; type: functional
RKO [23] = assay: Induction of apoptosis in human RKO cells assessed as total apoptotic cells at 10 uM after 48 hrs by Annexin V/PI staining based flow cytometric analysis; type: functional
[24] = target: Glyceraldehyde-3-phosphate dehydrogenase (Homo sapiens) (UniProt P04406); assay: Inhibition of GAPDH activity (unknown origin) after 1 hr; details: dose 0.01-10 µM
RKO [25] = assay: Induction of apoptosis in human RKO cells assessed as modulation of survivin expression level after 48 hrs by Western blotting analysis; type: functional, cell-based; details: dose 2.5-10 µM
RKO [26] = assay: Induction of apoptosis in human RKO cells assessed as modulation of cleaved caspase 9 expression level after 48 hrs by Western blotting analysis; type: functional, cell-based; details: dose 2.5-10 µM
RKO [27] = assay: Induction of apoptosis in human RKO cells assessed as modulation of cleaved caspase 3 expression level after 48 hrs by Western blotting analysis; type: functional, cell-based; details: dose 2.5-10 µM
RKO [28] = assay: Induction of apoptosis in human RKO cells assessed as modulation of cleaved PARP expression level after 48 hrs by Western blotting analysis; type: functional, cell-based; details: dose 2.5-10 µM
RKO [29] = assay: Induction of E-cadherin expression in human RKO cells after 24 hrs by Western blotting analysis; type: functional, cell-based
HCT-116 [30] = assay: Antimigratory activity against human HCT116 cells implanted in nude mouse assessed as inhibition of liver cells migration after 24 hrs by wound healing assay; type: functional, cell-based; details: dose 3-6 µM
HCT-116 [31] = assay: Antiinvasive activity against human HCT116 cells implanted in nude mouse assessed as inhibition of liver cells invasion after 24 hrs by transwell assay; type: functional, cell-based; details: dose 3-6 µM
HCT-116 [32] = assay: Downregulation of N-Cadherin expression in […] at 3 to 6 uM after 24 hrs by Western blotting analysis; type: functional, cell-based; details: dose 3-6 µM
HCT-116 [33] = assay: Suppression of GAPDH expression in […] at 3 to 6 uM after 24 hrs by Western blotting analysis; type: functional, cell-based; details: dose 3-6 µM
RKO [34] = assay: Antitumor activity against human RKO cells implanted in BALB/c nude mouse assessed as inhibition of tumor growth at 8 mg/kg, ip administered three times per week for 21 days and measured every 3 to 4 days by electronic caliper method; type: functional; details: 504 h, time 21 day, read-out: TGI
RKO [35] = assay: Antitumor activity against human RKO cells implanted in ip dosed BALB/c nude mouse assessed as suppression of GAPDH expression in tumor lysates administered three times per week for 21 days by Western blotting analysis; type: functional, organism-based; details: Neoplasm, time 21.0 day

Sequence of Glyceraldehyde-3-phosphate dehydrogenase (Homo sapiens) (P04406 2-335 limits assumed): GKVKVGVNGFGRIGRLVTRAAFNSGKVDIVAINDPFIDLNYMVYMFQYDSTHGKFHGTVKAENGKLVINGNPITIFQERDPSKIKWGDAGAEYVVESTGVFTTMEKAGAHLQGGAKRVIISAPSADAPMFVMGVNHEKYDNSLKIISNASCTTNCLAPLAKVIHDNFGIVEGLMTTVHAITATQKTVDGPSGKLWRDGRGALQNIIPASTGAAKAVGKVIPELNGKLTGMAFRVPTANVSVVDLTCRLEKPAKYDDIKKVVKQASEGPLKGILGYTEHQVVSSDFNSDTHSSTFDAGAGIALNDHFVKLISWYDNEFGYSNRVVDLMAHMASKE

SMILES: CCCCCCCCC[C@@H](O)CC(=O)N[C@@H](CC(N)=O)C(=O)N[C@@H](CCC(N)=O)C(=O)N[C@H](CC(=O)c1cc(C)cc(O)c1C(=O)c1c(O)cccc1O)CC(C)C
- IC50 (HCT-116 [1]): 3.12 µM
- IC50 (LS174T): 6.36 µM
- Activity (RKO [2]): 46.96%
- Activity (RKO [3]): 23.61%
- Activity (RKO [4]): 44.01%
- Activity (RKO [5]): 25.55%
- Activity (RKO [6]): 51.77%
- Activity (RKO [7]): Dose-Dependent Effect
- Activity (RKO [8]): 54.66%
- Activity (RKO [9]): 16.82%
- Activity (RKO [10]): 33.93%
- Activity (RKO [11]): 16.64%
- Activity (RKO [12]): 48.54%
- Activity (RKO [13]): 3.74%
- Activity (RKO [14]): 10.45%
- Activity (RKO [15]): 63.62%
- Activity (RKO [16]): 17.94%
- Activity (RKO [17]): 30.27%
- Activity (RKO [18]): 10.43%
- Activity (RKO [19]): Active
- Activity (RKO [20]): Active
- Activity (RKO [21]): Tde
- Activity (RKO [22]): 7.85%
- Activity (RKO [23]): 51.04%
- inhibition [24]: Dose-Dependent Effect
- Activity (RKO [25]): Dose-Dependent Effect
- Activity (RKO [26]): Dose-Dependent Effect
- Activity (RKO [27]): Dose-Dependent Effect
- Activity (RKO [28]): Dose-Dependent Effect
- Activity (RKO [29]): Active
- inhibition (HCT-116 [30]): Dose-Dependent Effect
- inhibition (HCT-116 [31]): Dose-Dependent Effect
- Activity (HCT-116 [32]): Active
- Activity (HCT-116 [33]): Active
- inhibition in vivo at 8 mg/kg (RKO [34]): 57.1%
- Activity (RKO [35]): Dose-Dependent Effect
